Where a name gives a salt, the structure may show the parent alone. Read-outs that look alike come from different tables or passages of the source.

Data set [1] in a line: In vitro trial: drug release from extruded suppositories in 150 ml water at 37° C. The data set is classed as physicochemical. As to conditions: phenylephrine hydrochloride vs lignocaine hydrochloride, alone and together (FIGS. 6-8).
Protocol: Mixes for the in vivo and the in vitro trails were made by dissolving the required quantities of drug in water which was then added to the polymer and thoroughly mixed using a spatula. […] The resulting damp, spongy particles were squeezed together by hand to form a dough-like mixture. The mixes were extruded through a nozzle of a 50 ml plastic syringe to form a long rod (9 mm diameter). Immediately after, suppositories were made by cutting the rod into 3 cm length and were stored in an air-tight container prior to use.
Drug release rates were studied in four ways:
(i) release from suppositories containing 20 mg phenylephrine hydrochloride only (in duplicate).
(iii) release from suppositories containing both drugs in the above amounts (in triplicate).
The concentration of drug in the aliquot was immediately determined spectrophotometrically (q.v.) after which the aliquot sample was returned to the solution. […]
Analytical background effects (due to the polymer) were measured by repeating the spectrophotometric procedure using a suppository containing no drug. […]
The absorbences of the samples taken during the in vitro trial were measured on the spectrophotometer and the concentrations of the dissolved drugs determined by reference to the calibration curves.
Drug release rates were measured in the in vitro trials for suppositories containing each drug alone and both drugs together. […]
The conditions of data set [2]: male beagle.
Protocol: Four smaller pieces were randomly cut from the remainder and placed into weighed vials. Distilled water (10 ml) was added to each vial and the contents were allowed to dissolve overnight. Triplicate aliquots (0.1 ml) were removed for the determination of radioactivity as for plasma.
The evacuated suppository was separated from the faecal pellet and weighed. The sample was then homogenised with a known quantity of purified sand (sand to sample ratio, 2:1).
Four pieces of the sand/suppository mixture were placed in weighed vials. Distilled water (4 ml) was added to each vial and the contents were allowed to dissolve overnight. Unisolve 1 (10 ml) was added and the resulting translucent gel was mixed by vigorous shaking. The samples were assayed for radioactivity.
They were then re-weighed and the moisture content of the evacuated suppository was determined.
Setting [3] is: male beagle, rectal, dose 38.93 μCi.

As to `CCN(CC)CC(=O)Nc1c(C)cccc1C` [lignocaine hydrochloride], in data set [1], the “proportion of drug released, comparison of drugs” value is “approximately the same”.
On the same count and under the same terms, next, `CNC[C@H](O)c1cccc(O)c1` [phenylephrine hydrochloride]: “approximately the same”.
For [^14 C]-lignocaine hydrochloride, the “time of maximum plasma concentration of radioactivity” value (dog, rectal) worked out at 8 h. For the same molecule, the “maximum plasma concentration of radioactivity” value (dog, rectal, at 8 h) is 0.00295 %/ml of the administered radioactive dose. For the setting “male beagle, 48 h”, the “% total administered dose, liver” value worked out at 0.36%; the “% total administered dose, rectal contents” value turned out to be 0.086%; the “% total administered dose, rectum” value was determined as 0.026%; the “cumulative % total administered dose, through liver” value was determined as 0.375%. Under “male beagle, 48 h”, the “cumulative % total administered dose, through rectal contents” value came out at 0.487%; the “cumulative % total administered dose, through rectum” value is on record as 0.401%; the “cumulative % total administered dose, through urine and faeces” value stood at 48.687%; the “total radioactivity recovered, bile” value stood at 0.006 μCi. In addition, under “male beagle, 48 h”, the “total radioactivity recovered, liver” value came out at 0.14 μCi; the “total radioactivity recovered, rectal contents” value was determined as 0.03 μCi; the “total radioactivity recovered, rectum” value is given as 0.01 μCi; the “total radioactivity recovered, urine and faeces” value turned out to be 18.77 μCi. Further, under “male beagle, rectal, 0 h”, the “concentration of radioactivity in plasma” value is listed as 0 % administered radioactive dos and the “radioactive drug equivalents in plasma” value was found to be 0 μg equivalents/ml plasma. In addition, under “male beagle, rectal, 0.5 h”, the “concentration of radioactivity in plasma” value is listed as 0.00081 % administered radioactive dos and the “radioactive drug equivalents in plasma” value is reported as 0.75 μg equivalents/ml plasma. Where the note is “male beagle, rectal, 1 h”, the “concentration of radioactivity in plasma” value was 0.0014 % administered radioactive dos and the “radioactive drug equivalents in plasma” value was 1.33 μg equivalents/ml plasma. In addition, where the note is “male beagle, rectal, 2 h”, the “concentration of radioactivity in plasma” value was 0.0022 % administered radioactive dos and the “radioactive drug equivalents in plasma” value was 2.08 μg equivalents/ml plasma. Where the note is “male beagle, rectal, 4 h”, the “concentration of radioactivity in plasma” value is 0.00291 % administered radioactive dos and the “radioactive drug equivalents in plasma” value is listed as 2.72 μg equivalents/ml plasma. Under “male beagle, rectal, 8 h”, the “concentration of radioactivity in plasma” value was 0.00295 % administered radioactive dos and the “radioactive drug equivalents in plasma” value stood at 2.75 μg equivalents/ml plasma. Besides, under “male beagle, rectal, 24 h”, the “concentration of radioactivity in plasma” value was 0.00267 % administered radioactive dos and the “radioactive drug equivalents in plasma” value is reported as 2.49 μg equivalents/ml plasma. For the same molecule, under “male beagle, rectal, 48 h”, the “concentration of radioactivity in plasma” value is 0.00062 % administered radioactive dos and the “radioactive drug equivalents in plasma” value worked out at 0.58 μg equivalents/ml plasma. In addition, the “total radioactivity excreted, total” value (male beagle, rectal, 48 h, dose 38.93 μCi) was 18.77 μCi. In addition, under setting [3], the “total radioactivity excreted, 0-24 h urine” value stood at 13.45 μCi; the “total radioactivity excreted, 24-48 h urine” value worked out at 2.19 μCi; the “total radioactivity excreted, total faeces” value amounted to 3.13 μCi. The “% total administered dose in evacuated suppository” value in data set [2] came to 27.58%. In addition, the “radioactive dose remaining in evacuated suppository” value in data set [2] (dose 38.93 μCi) was 10.74 μCi.

The values are drawn from US4406883A, “Controlled release suppositories consisting essentially of a linear polymer particularly, polyvinyl pyrrolidones” (Merrell Dow Pharmaceuticals Inc., priority 1981, dated 1983).
